We go through three compounds from ChEMBL document CHEMBL5375980, “PSMA-targeted small-molecule drug-conjugates with valine-citrulline and phosphoramidate cleavable linkers” (Bioorg Med Chem Lett, 2024).

Calls of active or inactive are those of the source. No cut-off for these calls is given here. Where a SMILES comes first, the peptide text is derived from it. [ ]: non-standard residue; d: D form. The star is where a group is joined. Dolaproine = CO[C@@H]([C@@H]1CCCN1)[C@@H](C)C(=O)O; Dil = CC[C@H](C)[C@H](NC)[C@@H](CC(=O)O)OC; X1 = C[C@@H](N*)[C@@H](O)c1ccccc1; NMeV = CN[C@H](C(=O)O)C(C)C

The nature of experiment [1]: Anticancer activity against PMSA positive human PC3-PIP cells assessed as cell viability at 10 nM incubated for 72 hrs by CellTiter-Glo Luminescent Cell Viability assay relative to control. As to conditions: read-out: Activity. The experiment is classed as functional.
Experiment [2] has as its system LNCaP C4-2B. Nature of the experiment: Anticancer activity against PSMA positive human LNCaP C4-2B cells assessed as cell viability at 10 nM incubated for 72 hrs by CellTiter-Glo Luminescent Cell Viability assay relative to control. The experiment is classed as functional. As to conditions: read-out: Activity.
In experiment [3] the test system is PC-3. Put plainly: Anticancer activity against PMSA negative human PC-3 cells assessed as cell viability at 10 nM incubated for 72 hrs by CellTiter-Glo Luminescent Cell Viability assay relative to control. The experiment is classed as functional. As to conditions: read-out: Activity. (In ATP-based viability assays light output follows the ATP content of the culture.)

The subject of experiment [4] is PC-3. Nature of the experiment: Anticancer activity against PMSA negative human PC-3 cells assessed as reduction in cell viability at 10 nM incubated for 72 hrs by CellTiter-Glo Luminescent Cell Viability assay. The experiment is classed as functional, cell-based.
A short description of experiment [5]: Anticancer activity against PSMA positive human PC3-PIP cells assessed as cell viability at 100 nM incubated for 72 hrs by CellTiter-Glo Luminescent Cell Viability assay relative to control. The experiment is classed as functional. The following applies: read-out: Activity.
In experiment [6] the test system is LNCaP C4-2B. Put plainly: Anticancer activity against PSMA positive human LNCaP C4-2B cells assessed as reduction in cell viability at 10 nM incubated for 72 hrs by CellTiter-Glo Luminescent Cell Viability assay. The experiment is classed as functional, cell-based.
Experiment [7] in a line: Anticancer activity against PSMA positive human PC3-PIP cells assessed as cell viability at 4 nM incubated for 72 hrs by CellTiter-Glo Luminescent Cell Viability assay relative to control. As to conditions: read-out: Activity. The experiment is classed as functional.
The test system of experiment [8] is LNCaP C4-2B. Nature of the experiment: Anticancer activity against PSMA positive human LNCaP C4-2B cells assessed as cell viability at 100 nM incubated for 72 hrs by CellTiter-Glo Luminescent Cell Viability assay relative to control. The experiment is classed as functional. As to conditions: read-out: Activity.
Experiment [9] relates to LNCaP C4-2B. Put plainly: Anticancer activity against PSMA positive human LNCaP C4-2B cells assessed as cell viability at 20 nM incubated for 72 hrs by CellTiter-Glo Luminescent Cell Viability assay relative to control. The experiment is classed as functional. The following applies: read-out: Activity.
Experiment [10] has as its system LNCaP C4-2B. Put plainly: Anticancer activity against PSMA positive human LNCaP C4-2B cells assessed as reduction in cell viability incubated for 72 hrs by CellTiter-Glo Luminescent Cell Viability assay. The experiment is classed as functional, cell-based. As to conditions: dose […].
A further experiment relates to PC3-PIP cell. Nature of the experiment: Anticancer activity against PSMA positive human PC3-PIP cells assessed as reduction in cell viability incubated for 72 hrs by CellTiter-Glo Luminescent Cell Viability assay. The experiment is classed as functional, cell-based. The following applies: dose 4-100 µM.

Take `CC[C@H](C)[C@@H]([C@@H](CC(=O)N1CCC[C@H]1[C@H](OC)[C@@H](C)C(=O)N[C@H](C)[C@@H](O)c1ccccc1)OC)N(C)C(=O)[C@@H](NC(=O)[C@@H](NC)C(C)C)C(C)C` (H-[NMeV]V[Dil][Dolaproine]-X1): the viability at 0.01 µM (in experiment [1]; in the experiment on LNCaP C4-2B [2]; with PC-3 [3]) was less than 50% each time.
For `CC[C@H](C)[C@@H]([C@@H](CC(=O)N1CCC[C@H]1[C@H](OC)[C@@H](C)C(=O)N[C@H](C)[C@@H](O)c1ccccc1)OC)N(C)C(=O)[C@@H](NC(=O)[C@H](C(C)C)N(C)C(=O)OCc1ccc(NC(=O)[C@H](CCCNC(N)=O)NC(=O)[C@@H](NC(=O)c2ccc(Cn3nnc4c3-c3ccccc3N(C(=O)CCC(=O)NCCOCCOCCOCCOCCC(=O)NCCCCCC(=O)N[C@@H](CCC(=O)N[C@@H](CCCOP(=O)(O)N[C@@H](CCC(=O)O)C(=O)O)C(=O)O)C(=O)O)c3ccccc3-4)cc2)C(C)C)cc1)C(C)C`, the outcome in the experiment with PC-3 [4] and in the experiment on LNCaP C4-2B [6] was inactive. Further, in experiment [5], the viability at 0.1 µM was found to be 25.8%. In addition, the viability at 0.01 µM in experiment [1] was less than 50%. The viability at 0.004 µM in experiment [7] is 80.9%.
For `CC[C@H](C)[C@@H]([C@@H](CC(=O)N1CCC[C@H]1[C@H](OC)[C@@H](C)C(=O)N[C@H](C)[C@@H](O)c1ccccc1)OC)N(C)C(=O)[C@@H](NC(=O)[C@H](C(C)C)N(C)C(=O)OCc1ccc(OC(=O)N(C)CCN(C)P(=O)(O)OCC[C@H](NC(=O)c2ccc(Cn3nnc4c3-c3ccccc3N(C(=O)CCC(=O)NCCOCCOCCOCCOCCC(=O)NCCCCCC(=O)N[C@@H](CCC(=O)N[C@@H](CCCOP(=O)(O)N[C@@H](CCC(=O)O)C(=O)O)C(=O)O)C(=O)O)c3ccccc3-4)cc2)C(=O)O)cc1)C(C)C`, the result in the experiment with PC-3 [4] was inactive. Moreover, the viability at 0.1 µM in the experiment with LNCaP C4-2B [8] was 7.44%. In addition, the viability at 0.01 µM came out at 47.2% in experiment [1] and 58.8% in the experiment with LNCaP C4-2B [2]. For the same compound, the viability at 0.02 µM in the experiment on LNCaP C4-2B [9] was 28.7%. In addition, the Activity result in the experiment with LNCaP C4-2B [10] and in the experiment with PC3-PIP cell was “Dose-Dependent Effect” in each case.
